Results taken from patent publication US5273986A, “Cycloalkylthiazoles” (Hoffmann-La Roche Inc., priority 1992, dated 1993).
Like-named read-outs stand apart in the source and are kept apart here.

Assays:
[1] = system: LTD4-induced bronchoconstriction; assay: Antagonism of LTD4-induced bronchoconstriction in guinea pigs; format: in vivo, guinea pig (male, Hartley strain); details: for ED50 / inhibition in vivo at 1 mg/kg: Cavia porcellus; for inhibition in vivo at 1 mg/kg: read-out: percent inhibition at 1 mg/kg p.o., LTD4-induced bronchoconstriction (ID50 not determined)
Protocol: Male guinea pigs (Hartley strain, Charles River) weighing 400-600 g were anesthetized with urethane (2 g/kg) intraperitoneally, and a polyethylene cannula was inserted into the jugular vein for intravenous drug administration. Tracheal pressure (cm of H2 O) was recorded from a Statham pressure transducer (P 32 AA). Propranolol was administered 5 minutes prior to challenge with LTD4. Two minutes later spontaneous breathing was arrested with succinylcholine chloride (1.2 mg/kg) administered intravenously, and the animals were ventilated with a Harvard (Model 680) small animal respirator set at 40 breaths/min and a 4.0 cc stroke volume. Control vehicle (DMSO) or test compound was administered through the cannula into the jugular vein 1 minute before the animals were challenged with a maximum constrictory dose of LTD4 ([…] I.V.) given intravenously. The change in tracheal pressure was averaged for control and drug-treated animals and percent inhibition was calculated. For determination of oral activity, animals were dosed with test compound or vehicle (PEG400) two hours prior to challenge with LTD4 ([…], i.v.).
The relative potency of test compounds administered by the intravenous and oral route was determined by administering increasing doses of test compound at a fixed pretreatment time. The median inhibitory dose (ID50 value) was determined by linear regression of log dose-responsecurves generated by at least 3 doses that caused statistically significant inhibition between 10 and 90%. The correlation coefficient for the regression line was always greater than 0.95. For determination of the time-course of inhibition for various compounds, the time between administration of compound and challenge with LTD4 was varied. Durations of action were defined as the time for inhibitory activity to decrease to 50%.

[2] = target: T1, LTD4 receptor (Cavia porcellus, UniProt Q2NNR5); assay: LTD4 receptor ligand binding assay (inhibition of [3H]LTD4 specific binding, guinea pig lung membranes); details: 20° C., 30 min
T1 construct: A lung homogenate was prepared from guinea pig lung membranes; from tissue; host or cells: guinea pig lung membranes
T1 sequence (Q2NNR5 1-340): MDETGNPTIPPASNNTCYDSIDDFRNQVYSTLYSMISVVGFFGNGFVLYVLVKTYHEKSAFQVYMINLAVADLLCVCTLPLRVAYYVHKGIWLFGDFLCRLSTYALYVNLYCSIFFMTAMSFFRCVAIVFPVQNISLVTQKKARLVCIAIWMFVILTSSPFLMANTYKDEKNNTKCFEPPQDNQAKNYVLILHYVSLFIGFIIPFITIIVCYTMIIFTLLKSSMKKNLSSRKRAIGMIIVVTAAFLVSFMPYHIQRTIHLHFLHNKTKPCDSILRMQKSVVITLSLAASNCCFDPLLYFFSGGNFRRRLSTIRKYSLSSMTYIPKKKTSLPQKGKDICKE
Protocol: A lung homogenate was prepared from guinea pig lung membranes and was resuspended in buffer containing 10 mM Tris.HCl (pH 7.5) (Hogaboom et al., Hogaboom, G. K., et al: Peptidoleukotrienes: distinct receptors for leukotriene C4 and D4 in the guinea pig lung. Biochem. Biophys. Res. Commun. 116: 1136-1143, 1983). Optimum assay conditions were determined with an assay mixture containing: 10 mM Tris.HCl (pH 7.5); 0.1% bovine serum albumin (BSA); 1 mM glycine; 1 mM cysteine; 3.5 nM [^3 H]LTD4 and the membrane preparation ([…] protein) in a final volume of […]. The incubation was carried out at 20° C. for 30 minutes. At 20° C., binding increased linearly with protein concentration, reached equilibrium in 20 minutes, was saturable, and was reversible upon addition of 1 mM unlabelled LTD4. Separation of bound from free [^3 H]LTD4 as performed by rapid filtration on GF/C glass fiber filters (Whatman International Ltd., Maidstone, England) and washing with two 4-ml aliquots of Tyrode solution (0.9 g/100 ml NaCl; 0.02 g/100 ml KCl; 0.02 g/100 ml CaCl2; 0.01 g/100 ml MgCl2; 0.1 g/100 ml glucose; 0.1 g/100 ml NaHCO3; 0.005 g/100 ml NaH2 PO4) containing 0.1% BSA. Radioactivity remaining on the filters was measured in 10 ml of Aquasol. Specific binding, was defined as that displaced by 1 mM unlabelled LTD4, and was 95% of total binding.
The inhibition of [^3 H]LTD4 specific binding by an antagonist is related to the LTD4 content of that sample by regression analysis from a "standard curve" of the inhibition of [^3 H]LTD4 specific binding by nonlabeled LTD4. The median inhibitory concentration (IC50 value) was determined by linear regression of log concentration-response curves generated by at least 3 concentrations that caused statistically significant inhibition between 10 and 90%. Results are expressed as mean±S. E. M. (standard error of the mean) of n independent experiments (separate receptor batches) conducted in duplicates.

[3] = iv, 1 min, I.V., compound 1 minute before LTD4 challenge, read-out: ID50 I.V., LTD4-induced bronchoconstriction
[4] = po, 2 h, p.o., compound two hours prior to LTD4 challenge, read-out: ID50 p.o., LTD4-induced bronchoconstriction
[5] = po, 2 h, p.o., 1 mg/kg, compound two hours prior to LTD4 challenge

Row | Compound | IC50 [2] [nM] | ED50 [1, 3] [mg/kg] | ED50 [1, 4] [mg/kg] | percent inhibition at 1 mg/kg I.V., LTD4-induced bronchoconstriction (ID50 not determined) ([1]; I.V., 1 mg/kg, compound 1 minute before LTD4 challenge) [%] | inhibition in vivo at 1 mg/kg [1, 5] [%]
1 | O=C(Cc1ccccc1C(=O)O)Nc1cccc(/C=C/c2nc(C3CCC3)cs2)c1 [Example 3, (E)-2-[2-[3-[2-[4-(Cyclobutyl)-2-thiazolyl]ethenyl]phenylamino]-2-oxoethyl]benzoic acid] | 3 | 0.01 | 0.22 | – | –
2 | CC(C)c1csc(/C=C/c2cccc(NC(=O)Cc3cccc(CC(=O)O)c3)c2)n1 [Example 15, (E)-3-[2-[3-[2-[4-(1-Methylethyl)-2-thiazolyl]ethenyl]phenylamino]-2-oxoethyl]phenylacetic acid] | 1000 | – | – | 40 ± 7 | –
3 | CC(C)c1csc(/C=C/c2cccc(NC(=O)Cc3ccccc3CC(=O)O)c2)n1 [Example 14, (E)-2-[2-[3-[2-[4-(1-Methylethyl)-2-thiazolyl]ethenyl]phenylamino]-2-oxoethyl]benzene acetic acid] | 1000 | 0.05 | – | – | 41 ± 8

Continued by falling IC50 [2], values first:

Row | IC50 [2] [nM] | Compound | ED50 [1, 3] [mg/kg] | ED50 [1, 4] [mg/kg] | percent inhibition at 1 mg/kg I.V., LTD4-induced bronchoconstriction (ID50 not determined) ([1]; I.V., 1 mg/kg, compound 1 minute before LTD4 challenge) [%] | inhibition in vivo at 1 mg/kg [1, 5] [%]
4 | 1000 | O=C(O)Cc1ccccc1CC(=O)Nc1cccc(/C=C/c2nc(C3CCC3)cs2)c1 [Example 13, (E)-2-[2-[3-[2-[4-(cyclobutyl)-2-thiazolyl]ethenyl]phenylamino]-2-oxoethyl]benzeneacetic acid] | 0.01 | 0.78 | – | –
5 | 900 | CC(C)c1csc(/C=C/c2cc(NC(=O)Cc3ccccc3C(=O)O)ccc2Cl)n1 [Example 17e, (E)-2-[2-[4-Chloro-3-[2-[4-(1-methylethyl)-2-thiazolyl]ethenyl]phenylamino]-2-oxoethyl]benzoic acid] | 0.28 | – | – | 26 ± 7
6 | 4 | CC(C)c1csc(/C=C/c2cccc(NC(=O)Cc3ccccc3C(=O)O)c2)n1 [Example 1, (E)-2-[2-[3-[2-[4-(1-Methylethyl)-2-thiazolyl]ethenyl]phenylamino]-2-oxoethyl]benzoic acid] | 0.008 | 0.5 | – | –
